Experimental findings from article PMC8535176, “Efficacy of epetraborole against Mycobacterium abscessus is increased with norvaline” (PLoS Pathogens, 2021) are described below.

SMILES strings stand for the structures. ≈ marks a conversion by molar mass, not a printed value. Where two headings read alike, the source gives them in different places.

Common to all, as to experiment: microbe, parasite or virus in culture
One assay relates to P. aeruginosa. Set-up: Whole-cell growth inhibition, dose-response MIC (MIC90) by resazurin microtiter assay (REMA), fluorescence read-out. To be noted: Pseudomonas aeruginosa.
Another assay deals with C. glutamicum. The arrangement: Whole-cell growth inhibition, dose-response MIC (MIC90) by resazurin microtiter assay (REMA), fluorescence read-out. To be noted: Corynebacterium glutamicum.
For a further assay, the system named is B. cereus. Set-up: Whole-cell growth inhibition, dose-response MIC (MIC90) by resazurin microtiter assay (REMA), fluorescence read-out. To be noted: Bacillus cereus.
The next assay concerns T1, M. tuberculosis Erdman.
T1 construct: Erdman
Set-up: Whole-cell growth inhibition, dose-response MIC (MIC90) by resazurin microtiter assay (REMA), fluorescence read-out. To be noted: Mycobacterium tuberculosis, ERDMAN.

Another assay deals with M. avium intracellulaire. Set-up: Whole-cell growth inhibition, dose-response MIC (MIC90) by resazurin microtiter assay (REMA), fluorescence read-out. To be noted: Mycobacterium avium.
In the next assay the test system is E. coli. Set-up: Whole-cell growth inhibition, dose-response MIC (MIC90) by resazurin microtiter assay (REMA), fluorescence read-out. To be noted: Escherichia coli.
The test system of a further assay is M. abscessus. The arrangement: Whole-cell growth inhibition, dose-response MIC (MIC90) by resazurin microtiter assay (REMA), fluorescence read-out. To be noted: Mycobacteroides abscessus.
Another assay relates to M. avium hominissuis. The arrangement: Whole-cell growth inhibition, dose-response MIC (MIC90) by resazurin microtiter assay (REMA), fluorescence read-out. To be noted: Mycobacterium avium.
In another assay the test system is T2, M. tuberculosis H37Rv.
T2 construct: H37Rv
Set-up: Whole-cell growth inhibition, dose-response MIC (MIC90) by resazurin microtiter assay (REMA), fluorescence read-out. To be noted: Mycobacterium tuberculosis, H37RV.

Assay [1] has as its system T3, Mycobacteroides abscessus subsp. abscessus MT16_6490.
T3 construct: MT16_6490
The arrangement: species or system M. abscessus; Resazurin microtiter assay (REMA), fluorescence; MIC at 90% growth inhibition from Gompertz fit. To be noted: 48 h, smooth morphotype. Here is the method:
(§1) MIC values were determined using the resazurin microtiter assay (REMA). Cultures were grown to log phase (OD600 of 0.4–0.8) and diluted to OD600 of 0.005. Drugs were prepared in two-fold serial dilutions in 96-well plates with 90 μL of bacteria per well to a final volume of 100 μL. Plates were incubated at 37°C until drug-free wells were turbid (2 days for M. abscessus). Ten μL of resazurin (0.025% wt/vol) was added to each well. Once the drug-free wells turned pink (one doubling time), the fluorescence (ex/em 560nm/590nm) was measured using an Infinite F200 Tecan plate reader. Fluorescence intensities were converted to % viable cells relative to drug-free conditions and fit to the Gompertz equation using GraphPad Prism version 9. MIC values at 90% growth inhibition were determined from the nonlinear regression Gompertz equation. Next, we tested the in vitro activity of EPT against a panel of M. abscessus clinical isolates belonging to the three subspecies of the M. abscessus complex (M. abscessus, M. massiliense, and M. bolletii) with smooth and rough colony morphologies and with different drug susceptibility profiles to various antibiotics. There was no loss in activity against clinical isolates (range of 0.014–0.046 μg/mL) nor different morphologies (S2 Table). To determine the spectrum of activity of EPT, we curated a panel of various mycobacteria and representative gram-positive and gram-negative bacteria. […] Mycobacteria strains were grown in rolling [compound left out] culture at 37°C in Middlebrook 7H9 (Difco) supplemented with 10% albumin dextrose catalase (ADC), 0.2% glycerol, and 0.05% Tween 80 (7H9 complete) or on 7H10 agar plates supplemented with 10% oleic acid ADC and 0.5% glycerol at 37°C. When mentioned, the carbon source was modified from glycerol to acetate or the detergent Tween 80 was removed from the media. Bacillus cereus (clinical isolate), Corynebacterium glutamicum (ATCC 13032), Escherichia coli, and Pseudomonas aeruginosa PAO1 were grown in LB broth. HepG2 cells (ATCC HB-8065) were grown in Dulbecco’s modified Eagle’s medium (DMEM) with phenol red (from Gibco) supplemented with 10% fetal bovine serum at 37°C with 5% CO2.

Assay [2] has as its system T4, Mycobacteroides abscessus subsp. abscessus ATCC 19977.
T4 construct: ATCC 19977
Set-up: species or system M. abscessus; Resazurin microtiter assay (REMA), fluorescence; MIC at 90% growth inhibition from Gompertz fit. To be noted: ATCC19977, 48 h, rough morphotype. Here is the method: as §1

The test system of assay [3] is T5, Mycobacteroides abscessus subsp. abscessus MT16_1065.
T5 construct: MT16_1065
The arrangement: species or system M. abscessus; Resazurin microtiter assay (REMA), fluorescence; MIC at 90% growth inhibition from Gompertz fit. To be noted: 48 h, smooth morphotype. As to the method:
as §1

The test system of assay [4] is T6, Mycobacteroides abscessus subsp. massiliense MT15_1748.
T6 construct: MT15_1748
The arrangement: species or system M. abscessus; Resazurin microtiter assay (REMA), fluorescence; MIC at 90% growth inhibition from Gompertz fit. To be noted: 48 h, rough morphotype. As to the method: as §1

The test system of assay [5] is T7, Mycobacteroides abscessus subsp. massiliense MT15_1749.
T7 construct: MT15_1749
The arrangement: species or system M. abscessus; Resazurin microtiter assay (REMA), fluorescence; MIC at 90% growth inhibition from Gompertz fit. To be noted: 48 h, rough morphotype. Here is the method: as §1

Assay [6] has as its system T8, Mycobacteroides abscessus subsp. bolletii AV.
T8 construct: AV
The arrangement: species or system M. abscessus; Resazurin microtiter assay (REMA), fluorescence; MIC at 90% growth inhibition from Gompertz fit. To be noted: 48 h, smooth morphotype. As to the method: as §1

Assay [7] relates to T9, Mycobacteroides abscessus subsp. bolletii Paris 167.
T9 construct: Paris 167
The arrangement: species or system M. abscessus; Resazurin microtiter assay (REMA), fluorescence; MIC at 90% growth inhibition from Gompertz fit. To be noted: 48 h, rough morphotype. As to the method:
as §1

For `NCC[C@H](O)C(=O)N[C@@H]1C[C@H](N)[C@@H](O[C@H]2O[C@H](CN)[C@@H](O)[C@H](O)[C@H]2O)[C@H](O)[C@H]1O[C@H]1O[C@H](CO)[C@@H](O)[C@H](N)[C@H]1O` [Amikacin], the MIC in the assay with P. aeruginosa (read-out: MIC (µg/mL) / AMK) was 0.22 µg/mL (≈ 0.376 µM); in the assay on C. glutamicum (read-out: MIC (µg/mL) / AMK), 0.064 µg/mL (≈ 0.109 µM); in the assay with B. cereus (read-out: MIC (µg/mL) / AMK), 64 µg/mL (≈ 109 µM); in the assay on M. tuberculosis Erdman (read-out: MIC (µg/mL) / AMK), 0.48 µg/mL (≈ 0.82 µM); in the assay with M. avium intracellulaire (read-out: MIC (µg/mL) / AMK) it was 3.8 µg/mL (≈ 6.49 µM); with E. coli (read-out: MIC (µg/mL) / AMK), 0.15 µg/mL (≈ 0.256 µM). The MIC turned out to be 4.8 µg/mL (≈ 8.2 µM) in the assay on M. abscessus (read-out: MIC (µg/mL) / AMK); 5.6 µg/mL (≈ 9.56 µM) with M. avium hominissuis (read-out: MIC (µg/mL) / AMK); 0.3 µg/mL (≈ 0.512 µM) in the assay with M. tuberculosis H37Rv (read-out: MIC (µg/mL) / AMK); 5.7 µg/mL (≈ 9.73 µM) in assay [1] (read-out: MIC AMK); 2.4 µg/mL (≈ 4.1 µM) in [2] (read-out: MIC AMK); 2.1 µg/mL (≈ 3.59 µM) in [3] (read-out: MIC AMK). For the same compound, the figures for the MIC in assay [4] (read-out: MIC AMK), in assay [5] (read-out: MIC AMK) and in [6] (read-out: MIC AMK) were 14 µg/mL (≈ 23.9 µM), 8.8 µg/mL (≈ 15 µM) and 7 µg/mL (≈ 12 µM), respectively.
With `COc1nc2ccc(Br)cc2cc1[C@@H](c1ccccc1)[C@@](O)(CCN(C)C)c1cccc2ccccc12` [Bedaquiline], the MIC was over 7.8 µg/mL in the assay with P. aeruginosa (read-out: MIC (µg/mL) / BDQ); over 7.8 µg/mL in the assay with C. glutamicum (read-out: MIC (µg/mL) / BDQ); over 7.8 µg/mL in the assay with B. cereus (read-out: MIC (µg/mL) / BDQ); 0.061 µg/mL (≈ 0.11 µM) with M. tuberculosis Erdman (read-out: MIC (µg/mL) / BDQ); 0.014 µg/mL (≈ 0.0252 µM) in the assay with M. avium intracellulaire (read-out: MIC (µg/mL) / BDQ); over 7.8 µg/mL in the assay on E. coli (table prints MIC, main text calls the EPT values MIC90, read-out: MIC (µg/mL) / BDQ). For the same compound, the MIC in the assay on M. abscessus (read-out: MIC (µg/mL) / BDQ) was 0.67 µg/mL (≈ 1.21 µM); with M. avium hominissuis (read-out: MIC (µg/mL) / BDQ), 0.038 µg/mL (≈ 0.0684 µM); in the assay with M. tuberculosis H37Rv (read-out: MIC (µg/mL) / BDQ) it was 0.26 µg/mL (≈ 0.468 µM); in assay [1] (read-out: MIC BDQ), 0.83 µg/mL (≈ 1.49 µM); in assay [2] (read-out: MIC BDQ) it was 0.27 µg/mL (≈ 0.486 µM); in [3] (read-out: MIC BDQ), 0.36 µg/mL (≈ 0.648 µM). Also, the MIC was 0.23 µg/mL (≈ 0.414 µM) in [4] (read-out: MIC BDQ), 0.4 µg/mL (≈ 0.72 µM) in assay [5] (read-out: MIC BDQ), 1.3 µg/mL (≈ 2.34 µM) in assay [6] (read-out: MIC BDQ) and 0.39 µg/mL (≈ 0.702 µM) in assay [7] (read-out: MIC BDQ).
As to `CO[C@@]1(NC(=O)Cc2cccs2)C(=O)N2C(C(=O)O)=C(COC(N)=O)CS[C@@H]21` [Cefoxitin], the MIC in the assay on P. aeruginosa (read-out: MIC (µg/mL) / CFX) was over 98 µg/mL; in the assay with C. glutamicum (read-out: MIC (µg/mL) / CFX), 98 µg/mL (≈ 229 µM); in the assay on B. cereus (read-out: MIC (µg/mL) / CFX), over 98 µg/mL; with M. tuberculosis Erdman (read-out: MIC (µg/mL) / CFX), over 98 µg/mL; in the assay on M. avium intracellulaire (read-out: MIC (µg/mL) / CFX) it was 0.42 µg/mL (≈ 0.983 µM); in the assay with E. coli (read-out: MIC (µg/mL) / CFX), 4 µg/mL (≈ 9.36 µM). For the same compound, the MIC in the assay on M. abscessus (read-out: MIC (µg/mL) / CFX) was 12 µg/mL (≈ 28.1 µM); in the assay on M. avium hominissuis (read-out: MIC (µg/mL) / CFX), 4.7 µg/mL (≈ 11 µM); with M. tuberculosis H37Rv (read-out: MIC (µg/mL) / CFX) it was over 98 µg/mL; in assay [1] (read-out: MIC CFX), 13 µg/mL (≈ 30.4 µM); in [3] (read-out: MIC CFX), 13 µg/mL (≈ 30.4 µM); in assay [4] (read-out: MIC CFX), 26 µg/mL (≈ 60.8 µM). For the same compound, the figures for the MIC in [5] (read-out: MIC CFX), in assay [6] (read-out: MIC CFX) and in assay [7] (read-out: MIC CFX) were 16 µg/mL (≈ 37.4 µM), 15 µg/mL (≈ 35.1 µM) and 16 µg/mL (≈ 37.4 µM), respectively.
Regarding `CO[C@H]1/C=C/O[C@@]2(C)Oc3c(C)c(O)c4c(O)c(c(/C=N/N5CCN(C)CC5)c(O)c4c3C2=O)NC(=O)/C(C)=C\C=C\[C@H](C)[C@H](O)[C@@H](C)[C@@H](O)[C@@H](C)[C@H](OC(C)=O)[C@@H]1C` [Rifampicin], the MIC in the assay with P. aeruginosa (read-out: MIC (µg/mL) / RIF) is 15 µg/mL (≈ 18.2 µM); in the assay with C. glutamicum (read-out: MIC (µg/mL) / RIF), under 0.063 µg/mL; with B. cereus (read-out: MIC (µg/mL) / RIF), under 0.063 µg/mL; in the assay with M. tuberculosis Erdman (read-out: MIC (µg/mL) / RIF) it was 0.0065 µg/mL (≈ 0.0079 µM); in the assay with M. avium intracellulaire (read-out: MIC (µg/mL) / RIF) it was 0.063 µg/mL (≈ 0.0766 µM); in the assay on E. coli (read-out: MIC (µg/mL) / RIF) it was 3.9 µg/mL (≈ 4.74 µM). The MIC in the assay with M. abscessus (read-out: MIC (µg/mL) / RIF) was 9.1 µg/mL (≈ 11.1 µM); with M. avium hominissuis (read-out: MIC (µg/mL) / RIF), 0.063 µg/mL (≈ 0.0766 µM); in the assay on M. tuberculosis H37Rv (read-out: MIC (µg/mL) / RIF) it was 0.0063 µg/mL (≈ 0.00766 µM); in [1] (read-out: MIC RIF) it was over 24 µg/mL; in [2] (read-out: MIC RIF) it was 1.8 µg/mL (≈ 2.19 µM); in [3] (read-out: MIC RIF), over 24 µg/mL. Also, the values for the MIC in [5] (read-out: MIC RIF), in assay [6] (read-out: MIC RIF) and in [7] (read-out: MIC RIF) were 6.7 µg/mL (≈ 8.14 µM), over 24 µg/mL and 7.4 µg/mL (≈ 8.99 µM), respectively.
